In the series the test system is CCRIS mutagenicity, Ames/micronucleus/aberration tests. Put plainly: CCRIS mutagenicity studies.
Where [1] appears, read: Test System: AMES SALMONELLA TYPHIMURIUM, Strain/Indicator: TA98, Metabolic Activation: NONE, Method: STANDARD PLATE.
The mark [2] stands for this setting: Test System: AMES SALMONELLA TYPHIMURIUM, Strain/Indicator: TA98, Metabolic Activation: RAT, LIVER, S-9, AROCLOR 1254, Method: STANDARD PLATE.
The mark [3] stands for this setting: Test System: AMES SALMONELLA TYPHIMURIUM, Strain/Indicator: TA100, Metabolic Activation: NONE, Method: STANDARD PLATE.
[4] abbreviates: Test System: AMES SALMONELLA TYPHIMURIUM, Strain/Indicator: TA100, Metabolic Activation: RAT, LIVER, S-9, AROCLOR 1254, Method: STANDARD PLATE.
Where [5] appears, read: Test System: AMES SALMONELLA TYPHIMURIUM, Strain/Indicator: TA1535, Metabolic Activation: NONE, Method: STANDARD PLATE.
Setting [6] is: Test System: AMES SALMONELLA TYPHIMURIUM, Strain/Indicator: TA1535, Metabolic Activation: RAT, LIVER, S-9, AROCLOR 1254, Method: STANDARD PLATE.
[7] abbreviates: Test System: AMES SALMONELLA TYPHIMURIUM, Strain/Indicator: TA1537, Metabolic Activation: NONE, Method: STANDARD PLATE.
The mark [8] stands for this setting: Test System: AMES SALMONELLA TYPHIMURIUM, Strain/Indicator: TA1537, Metabolic Activation: RAT, LIVER, S-9, AROCLOR 1254, Method: STANDARD PLATE.
[9] abbreviates: Test System: AMES SALMONELLA TYPHIMURIUM, Strain/Indicator: TA1538, Metabolic Activation: NONE, Method: STANDARD PLATE.
The mark [10] stands for this setting: Test System: AMES SALMONELLA TYPHIMURIUM, Strain/Indicator: TA1538, Metabolic Activation: RAT, LIVER, S-9, AROCLOR 1254, Method: STANDARD PLATE.

Calls of active or inactive are those of the source. The rule behind the calls is not given here.

Turning to `CC/C(=C(\c1ccccc1)c1ccc(OCCN(C)C)cc1)c1ccccc1`, the mutagenic call reads like this: (End Point: IN VITRO CHROMOSOMAL ABERRATIONS, Test System: SYRIAN HAMSTER EMBRYO (SHE) CELLS, Metabolic Activation: NONE) “inactive; negative”; (End Point: IN VITRO MICRONUCLEUS, Test System: AHH-1 CELLS, Metabolic Activation: NONE) “inactive; negative”; (End Point: IN VITRO MICRONUCLEUS, Test System: MCL-5 CELLS, Metabolic Activation: NONE) “active; positive”; (Test System: AMES SALMONELLA TYPHIMURIUM, Strain/Indicator: TA98, Metabolic Activation: HAMSTER, LIVER, S-9, AROCLOR 1254, Method: STANDARD PLATE) “inactive; negative”; under setting [1], “inactive; negative”; under setting [2], “inactive; negative”. Besides, the mutagenic call is “inactive; negative” (Test System: AMES SALMONELLA TYPHIMURIUM, Strain/Indicator: TA100, Metabolic Activation: HAMSTER, LIVER, S-9, AROCLOR 1254, Method: STANDARD PLATE); “inactive; negative” under setting [3]; “inactive; negative” under setting [4]; “inactive; negative” (Test System: AMES SALMONELLA TYPHIMURIUM, Strain/Indicator: TA1535, Metabolic Activation: HAMSTER, LIVER, S-9, AROCLOR 1254, Method: STANDARD PLATE); “inactive; negative” under setting [5]; “inactive; negative” under setting [6]. The mutagenic call by setting is: (Test System: AMES SALMONELLA TYPHIMURIUM, Strain/Indicator: TA1537, Metabolic Activation: HAMSTER, LIVER, S-9, AROCLOR 1254, Method: STANDARD PLATE) “inactive; negative”; under setting [7], “inactive; negative”; under setting [8], “inactive; negative”; (Test System: AMES SALMONELLA TYPHIMURIUM, Strain/Indicator: TA1538, Metabolic Activation: HAMSTER, LIVER, S-9, AROCLOR 1254, Method: STANDARD PLATE) “inactive; negative”; under setting [9], “inactive; negative”; under setting [10], “inactive; negative”. Where the note is “Test System: CHINESE HAMSTER V-79, Strain/Indicator: V-79 (HPRT)/6-THIOGUANINE, Metabolic Activation: NONE”, the mutagenic call was “inactive; negative”.
For the compound `COC(=O)C(C)(C)Oc1ccc(-c2ccc(Cl)cc2)cc1`, the mutagenic call under setting [1] was “inactive; negative”; the mutagenic call under setting [2] was “inactive; negative”; the mutagenic call (Test System: AMES SALMONELLA TYPHIMURIUM, Strain/Indicator: TA98, Metabolic Activation: RAT, LIVER, S-9, PHENOBARBITONE AND BETA-NAPHTHOFLAVONE, Method: PREINCUBATION) was “inactive; negative”; the mutagenic call under setting [3] was “inactive; negative”; the mutagenic call under setting [4] was “inactive; negative”; the mutagenic call (Test System: AMES SALMONELLA TYPHIMURIUM, Strain/Indicator: TA100, Metabolic Activation: RAT, LIVER, S-9, PHENOBARBITONE AND BETA-NAPHTHOFLAVONE, Method: PREINCUBATION) was “inactive; negative”. Besides, the mutagenic call under setting [5] was “inactive; negative”; the mutagenic call under setting [6] was “inactive; negative”; the mutagenic call under setting [7] was “inactive; negative”; the mutagenic call under setting [8] was “inactive; negative”; the mutagenic call under setting [9] is “inactive; negative”; the mutagenic call under setting [10] was “inactive; negative”. Also, the mutagenic call (Test System: E. COLI, Strain/Indicator: WP2 (PKM101), Metabolic Activation: NONE, Method: STANDARD PLATE) is “inactive; negative”; the mutagenic call (Test System: E. COLI, Strain/Indicator: WP2 (PKM101), Metabolic Activation: RAT, LIVER, S-9, AROCLOR 1254, Method: STANDARD PLATE) was “inactive; negative”; the mutagenic call (Test System: E. COLI, Strain/Indicator: WP2 (PKM101), Metabolic Activation: RAT, LIVER, S-9, PHENOBARBITONE AND BETA-NAPHTHOFLAVONE, Method: PREINCUBATION) is “inactive; negative”; the mutagenic call (Test System: E. COLI, Strain/Indicator: WP2 UVRA (PKM101), Metabolic Activation: NONE, Method: STANDARD PLATE) is “inactive; negative”; the mutagenic call (Test System: E. COLI, Strain/Indicator: WP2 UVRA (PKM101), Metabolic Activation: RAT, LIVER, S-9, AROCLOR 1254, Method: STANDARD PLATE) was “inactive; negative”; the mutagenic call (Test System: UDS RAT HEPATOCYTES, Metabolic Activation: NONE, Method: AUTORADIOGRAPHY) is “inactive; negative”. Under “Test System: UDS RAT HEPATOCYTES, Strain/Indicator: BROMODEOXYURIDINE INCORP, Metabolic Activation: NONE”, the mutagenic call is “active; positive”.
Regarding `CCCCN1C2c3ccccc3-c3ccccc3C21` (stereo not drawn), the mutagenic call by setting is: under setting [3], “active; positive”; (Test System: CHINESE HAMSTER V-79, Strain/Indicator: V-79/6-THIOGUANINE, Metabolic Activation: NONE, Method: STANDARD PLATE) “inactive; negative”.
On to `[O]c1nccc(=O)[nH]1`, for which, under setting [3], the mutagenic call is “active; positive”.
Turning to `CCCCCCc1ccc(O)cc1O`, the mutagenic call (End Point: IN VITRO CHROMOSOMAL ABERRATIONS, Test System: CHO CELLS, Metabolic Activation: NONE) is “inactive; negative”; the mutagenic call (End Point: IN VITRO CHROMOSOMAL ABERRATIONS, Test System: CHO CELLS, Metabolic Activation: RAT, LIVER, S-9, AROCLOR 1254) was “inactive; negative”; the mutagenic call (Test System: AMES SALMONELLA TYPHIMURIUM, Strain/Indicator: TA98, Metabolic Activation: HAMSTER, LIVER, S-9, AROCLOR 1254, Method: PREINCUBATION) is “inactive; negative”; the mutagenic call (Test System: AMES SALMONELLA TYPHIMURIUM, Strain/Indicator: TA98, Metabolic Activation: NONE, Method: PREINCUBATION) was “inactive; negative”; the mutagenic call (Test System: AMES SALMONELLA TYPHIMURIUM, Strain/Indicator: TA98, Metabolic Activation: RAT, LIVER, S-9, AROCLOR 1254, Method: PREINCUBATION) was “inactive; negative”; the mutagenic call (Test System: AMES SALMONELLA TYPHIMURIUM, Strain/Indicator: TA100, Metabolic Activation: HAMSTER, LIVER, S-9, AROCLOR 1254, Method: PREINCUBATION) is “inactive; negative”. For the same compound, the mutagenic call is, setting by setting: (Test System: AMES SALMONELLA TYPHIMURIUM, Strain/Indicator: TA100, Metabolic Activation: NONE, Method: PREINCUBATION) “inactive; negative”; (Test System: AMES SALMONELLA TYPHIMURIUM, Strain/Indicator: TA100, Metabolic Activation: RAT, LIVER, S-9, AROCLOR 1254, Method: PREINCUBATION) “inactive; negative”; (Test System: AMES SALMONELLA TYPHIMURIUM, Strain/Indicator: TA1535, Metabolic Activation: HAMSTER, LIVER, S-9, AROCLOR 1254, Method: PREINCUBATION) “inactive; negative”; (Test System: AMES SALMONELLA TYPHIMURIUM, Strain/Indicator: TA1535, Metabolic Activation: NONE, Method: PREINCUBATION) “inactive; negative”; (Test System: AMES SALMONELLA TYPHIMURIUM, Strain/Indicator: TA1535, Metabolic Activation: RAT, LIVER, S-9, AROCLOR 1254, Method: PREINCUBATION) “inactive; negative”; (Test System: AMES SALMONELLA TYPHIMURIUM, Strain/Indicator: TA1537, Metabolic Activation: HAMSTER, LIVER, S-9, AROCLOR 1254, Method: PREINCUBATION) “inactive; negative”. Besides, the mutagenic call by setting is: (Test System: AMES SALMONELLA TYPHIMURIUM, Strain/Indicator: TA1537, Metabolic Activation: NONE, Method: PREINCUBATION) “inactive; negative”; (Test System: AMES SALMONELLA TYPHIMURIUM, Strain/Indicator: TA1537, Metabolic Activation: RAT, LIVER, S-9, AROCLOR 1254, Method: PREINCUBATION) “inactive; negative”; (Test System: MOUSE LYMPHOMA, Strain/Indicator: L5178Y (TK+/TK-), Metabolic Activation: NONE, Method: SUSPENSION/PLATE) “inactive; negative”; (Test System: MOUSE LYMPHOMA, Strain/Indicator: L5178Y (TK+/TK-), Metabolic Activation: RAT, LIVER, S-9, AROCLOR 1254, Method: SUSPENSION/PLATE) “active; positive”.
As to `C[As](C)O`, the mutagenic call (End Point: IN VITRO CHROMOSOMAL ABERRATIONS, Test System: CHINESE HAMSTER V79 CELLS, Metabolic Activation: NONE) is “active; positive (structural and ploidy changes)”.

For the origin of these results see PubChem BioAssay AID1259407 (Chemical Carcinogenesis Research Information System (CCRIS), 2018).
